{"source": "patent US20230398130A1", "about": "“METHODS AND COMPOSITIONS FOR DIFFERENTIATING STEM CELLS” (Massachusetts Institute of Technology, priority 2020, published 2023)", "key": {"Paneth cells": {"tested_on": "Paneth cells", "experiment": "Immunofluorescent imaging of organoids: LYZ+ cells per organoid area", "type": "cell-based, murine", "protocol": "Immunofluorescent imaging. For immunofluorescence staining of organoids, intestinal organoids in Matrigel were fixed with 4% paraformaldehyde, then transferred to centrifuge tube. After washing with PBS, the isolated organoids were permeabilized with 1% Triton X followed by incubation with blocking buffer (1% BSA+3% Donkey Serum+0.2% Triton X in PBS) at RT. The organoids were then stained with primary antibodies and fluorescent dye-labeled secondary antibodies as well as with DAPI. Slides were covered with […]® Mounting Media (VECTOR). The following primary and secondary antibodies were used for the staining: rabbit anti-Lysozyme (1:1000, Thermo Fisher Scientific), rat anti-E-cadherin (1:1000, Thermo Fisher Scientific), Alexa Fluor 488 and 568 secondary antibodies (1:1000, Invitrogen). Images were acquired with a confocal laser scanning microscope (Nikon Eclipse 90i). For the analysis of Lysozyme+ cells per organoid area, the number of counted Lysozyme+ cells were normalized to measured organoid surface area. Image J was used for the data analysis."}, "[1]": {"tested_on": "human small intestinal organoids", "experiment": "Lysozyme secretion assay, stem cell-enriched human small intestinal organoids", "type": "cell-based", "conditions": "increasing KPT-330 concentrations, 6 days, three duodenal donors", "from_the_text": "To extend the observations from the murine organoid system, Applicants sought to examine how XPO1 inhibition via KPT-330 may effect human small intestinal stem cells by utilizing a stem-cell enriched human small intestinal organoid model^46 (see Methods).\nHuman crypt isolation and organoid culture. Samples from adult human duodenum were collected for organoid culture in accordance with MGH IRB guidance. Human donor tissue was non-inflamed excess tissue collected during bulk surgical resection via MGH pathology. Crypts were isolated from bulk resections as follows. Bulk resections were cut into approximately 0.25 cm sections from epithelial surface, and washed in PBSO repeatedly by gently pipetting the fragments using a 10-ml pipette until the supernatant was clear. Fragments were rocked on ice with crypt isolation buffer (10 mM EDTA, 10 mM HEPES, 2% FCS in PBSO) for 30 min. After isolation buffer was removed, fragments were washed with cold PBSO by vigorous shaking to release the crypts, this process was repeated with reserved crypt-laden supernatant fractions 4-6 times or until supernatant was free of intact crypts (visual inspection). […]\nLysozyme secretion assay. […] The solution was replaced to a 96-well white microplate, and luminescent signals were measured by a microplate reader (infinite M200, Tecan)."}, "ISC-enriched organoids [2]": {"tested_on": "ISC-enriched organoids", "experiment": "Secondary (validation) screen, 384-well 2.5-D, ENR+CD 6 days, n=8 wells, vs ENR+CD+DMSO control: ATP (CTG)", "type": "cell-based, murine"}, "[3]": {"tested_on": "ENR+CD differentiating organoids", "experiment": "Longitudinal single-cell RNA-seq (Seq-Well) of organoid differentiation, ENR+CD with or without 160 nM KPT-330", "type": "cell-based, murine", "text": "For time points beyond 2 days, media was refreshed every other day. Following the Seq-Well protocol Applicants followed a standard library preparation, sequencing, and alignment process (see Methods). […] Single-cell RNA-sequencing. A single-cell suspension was obtained from organoids cultured under conditions for the differentiation time course as described above. Applicants utilized the Seq-Well platform for massively parallel scRNA-seq to capture transcriptomes of single cells on barcoded mRNA capture beads. […] In brief, 20,000 cells from one organoid condition were loaded onto one array containing 100,000 barcoded mRNA capture beads. The loaded arrays containing cells and beads were then sealed using a polycarbonate membrane with a pore size of […], which allows for exchange of buffers but retains biological molecules confined within each microwell. Subsequent exchange of buffers allows for cell lysis, transcript hybridization, and bead recovery before performing reverse transcription en masse. Following reverse transcription and exonuclease treatment to remove excess primers, PCR amplification was carried out using KAPA HiFi PCR Mastermix with 2,000 beads per 50 μL reaction volume. Libraries were then pooled and purified using Agencourt AMPure XP beads (Beckman Coulter, A63881) by a 0.6×SPRI followed by a 0.8×SPRI and quantified using Qubit […] (Thermo Fisher). Libraries were constructed using the Nextera Tagmentation method on a total of 800 pg of pooled cDNA library per sample. […] Arrays were sequenced with an Illumina NovaSeq System. The read structure was paired end with Read 1 starting from a custom read 1 primer containing 20 bases with a 12 bp cell barcode and 8 bp unique molecular identifier (UMI) and Read 2 being 50 bases containing transcript information. Single-cell RNA-sequencing computational pipelines and analysis. […] Briefly, for each sequencing run, raw sequencing data was converted to demultiplexed FASTQ files using bcl2fastq2 based on Nextera N700 indices corresponding to individual samples/arrays. […] Individual reads were tagged according to the 12-bp barcode sequencing and the 8-bp UMI contained in Read 1 of each fragment. Following alignment, reads were binned onto 12-bp cell barcodes and collapsed by their 8-bp UMI. Digital gene expression matrices (e.g. cell by gene tables) for each sample were obtained from quality filtered and mapped reads and UMI-collapsed data, are deposited in GSE100274, and were utilized as input into Seurat v3 for further analysis. […] Applicants collected 17 samples at the following timepoints: 6 hours (0.25 days), and 1, 2, 3, 4, or 6 days. […] For time points beyond 2 days, media was refreshed every other day. […] Murine and human single-cell RNA-sequencing and alignment. […] Excess Matrigel was removed per previously described washing protocol, and organoids were resuspended in TrypLE at 37 C for 15 min, with vigorous homogenization through a p200 pipette tip every 5 min. After 15 min, the suspension was passed through a 30 uM cell strainer twice, and counted under brightfield microscopy with trypan blue staining for viable single cells. For human organoid scRNA-seq, antibody-based cell hashing was performed, with all samples pooled following labeling and three washes in FACS buffer to remove excess antibody. Each sample was manually counted to equally weight in cell pools, and then the pool was split and processed as four identical samples."}, "ISC-enriched organoids [4]": {"tested_on": "ISC-enriched organoids", "experiment": "Primary screen, 384-well 2.5-D organoid differentiation (ENR+CD, 6 days): carbachol-induced lysozyme secretion (LYZ.S)", "type": "cell-based, murine", "conditions": "primary screen; for Z.LYZ.S: standard z score; for SSMD.LYZ.S: strictly standardized mean difference", "text": "High-throughput screening."}, "[5]": {"tested_on": "human small intestinal organoids", "experiment": "Single-cell RNA-seq (Seq-Well S^3) of human small intestinal organoids with or without KPT-330", "type": "cell-based", "from_the_text": "To more completely explore the changes induced by KPT-330 in this human organoid model, and any donor associated effects, Applicants again utilized scRNA-seq via Seq-Well S^3. Applicants performed a comparison between untreated and KPT-330-treated organoids from each donor over a 6-day differentiation, with each sample consisting of single cells from >1,000 organoids. The resulting dataset consists of 2,484 cells. UMI, percent mitochondrial, and detected gene distributions are similar across samples, within acceptable quality bounds (genes >500, UMI<30,000, percent mitochondrial <35) (FIG. 60A).\nFor both, organoids at each sampling were harvested from 4-6 pooled Matrigel domes, totaling >1,000 organoids per sample. Excess Matrigel was removed per previously described washing protocol, and organoids were resuspended in TrypLE at 37 C for 15 min, with vigorous homogenization through a p200 pipette tip every 5 min. After 15 min, the suspension was passed through a 30 uM cell strainer twice, and counted under brightfield microscopy with trypan blue staining for viable single cells. For human organoid scRNA-seq, antibody-based cell hashing was performed, with all samples pooled following labeling and three washes in FACS buffer to remove excess antibody. Each sample was manually counted to equally weight in cell pools, and then the pool was split and processed as four identical samples.\nAntibody hashed arrays were demultiplex with doublets and negative-staining cells removed following default settings of the Seurat function HTODemux.\nApplicants performed integrated analysis on a combined dataset of 2,484 cells, with quality metrics for gene number, captured UMIs, and percent mitochondrial genes reported in Supp. […] Dimensional reduction and clustering was performed following normalization in Seurat V3 via SCTransform^71. Applicants performed variable gene identification and dimensionality reduction utilizing the first 18 principal components based on the elbow method to identify 7 clusters using Louvain clustering (Resolution=0.5). […]"}, "[6]": {"conditions": "1st of the 4 dose lines of the treatment (dose not given)"}, "[7]": {"conditions": "2nd of the 4 dose lines of the treatment (dose not given)"}, "[8]": {"conditions": "3rd of the 4 dose lines of the treatment (dose not given)"}, "[9]": {"conditions": "4th of the 4 dose lines of the treatment (dose not given)"}}, "note": "“Also recorded” adds a separate entry of the source."}
{"compound": "O=C(/C=C\\n1cnc(-c2cc(C(F)(F)F)cc(C(F)(F)F)c2)n1)NNc1cnccn1", "note": "[KPT-330]", "values": [{"measurement": "LYZ+ Paneth cell number (IF imaging)", "setting": "Paneth cells; ENR with or without 160 nM KPT-330, 3 days", "result": "pro-Paneth differentiation effect is also observed"}, {"measurement": "LYZ+ Paneth cell number (IF imaging)", "setting": "Paneth cells; ENR+CD with 160 nM KPT-330, 6 days", "result": "an increase in Paneth cell number"}, {"measurement": "normalized LYZ secretion", "setting": "[1]", "result": "normalized LYZ secretion significantly increases with dose"}, {"measurement": "Z.CTG", "setting": "ISC-enriched organoids [2]; Dose 0.02 uM", "result": 1.135}, {"measurement": "repSSMD.CTG", "setting": "ISC-enriched organoids [2]; Dose 0.02 uM", "result": 0.959}, {"measurement": "Z.CTG", "setting": "ISC-enriched organoids [2]; Dose 0.04 uM", "result": 0.263}, {"measurement": "repSSMD.CTG", "setting": "ISC-enriched organoids [2]; Dose 0.04 uM", "result": 0.179}, {"measurement": "Z.CTG", "setting": "ISC-enriched organoids [2]; dose 0.08 uM", "result": 1.273}, {"measurement": "repSSMD.CTG", "setting": "ISC-enriched organoids [2]; dose 0.08 uM", "result": 0.916}, {"measurement": "organoid cell type composition over differentiation time course", "setting": "[3]; 160 nM KPT-330 vs control, day 0.25-6", "result": "enhances stem conversion to mature cells; also recorded: relative depletion of stem I (and stem II & III) and enteroendocrine cells over time along with the corresponding enrichment of enterocytes and Paneth cells"}, {"measurement": "inferred signaling pathway activity (PROGENy), effect of KPT-330", "setting": "[3]; Cohen's d per pathway and cell type", "result": "pan-epithelial increase in stress-associated Trail signaling"}, {"measurement": "inferred upstream TF activity clusters (DoRothEA), effect of KPT-330", "setting": "[3]; Fisher's exact test per cell type", "result": "depletion of cell cycle cluster 0 and enrichment in stress response cluster 6"}, {"measurement": "active and quiescent ISC signature", "setting": "[3]; early stem cell populations, KPT-330 vs control", "result": "induces a quiescent ISC signature and reduces an active ISC signature; also recorded: transition into quiescence"}, {"measurement": "differentially expressed genes, KPT-330 treated vs untreated", "setting": "[3]; stem II/III populations, day 0.25-2", "result": "most significantly enriched (Xpo1) and depleted (Kpnb1"}, {"measurement": "gene set enrichment analysis (MSigDB hallmark v7)", "setting": "[3]; stem II/III populations, day 0.25-2, FDR<0.05", "result": "suppresses programs downstream of mitogen-driven signaling"}, {"measurement": "Z.LYZ.S", "setting": "ISC-enriched organoids [4]; [6]", "result": 1.677}, {"measurement": "Z.LYZ.S", "setting": "ISC-enriched organoids [4]; [7]", "result": "−1.821"}, {"measurement": "Z.LYZ.S", "setting": "ISC-enriched organoids [4]; [8]", "result": "−2.523"}, {"measurement": "Z.LYZ.S", "setting": "ISC-enriched organoids [4]; [9]", "result": "−2.733"}, {"measurement": "SSMD.LYZ.S", "setting": "ISC-enriched organoids [4]; [6]", "result": 1.329}, {"measurement": "SSMD.LYZ.S", "setting": "ISC-enriched organoids [4]; [7]", "result": "−0.894"}, {"measurement": "SSMD.LYZ.S", "setting": "ISC-enriched organoids [4]; [8]", "result": "−1.575"}, {"measurement": "SSMD.LYZ.S", "setting": "ISC-enriched organoids [4]; [9]", "result": "−1.599"}, {"measurement": "LYZ expression (scRNA-seq)", "setting": "[5]; 160 nM KPT-330, 6 days, all donors", "result": "increased LYZ expression"}, {"measurement": "cell type composition (scRNA-seq)", "setting": "[5]; 160 nM KPT-330, 6 days, pan-donor", "result": "decreases in cycling stem and progenitor populations, increases in quiescent progenitors and enterocytes"}, {"measurement": "XPO1 expression (scRNA-seq)", "setting": "[5]; following KPT-330 treatment", "result": "compensatory increase in XPO1 expression"}]}
